# Source: patent US12384753B2, “17-beta-hydroxysteroid dehydrogenase type 13 inhibitors and methods of use thereof” (Enanta Pharmaceuticals, Inc., priority 2021, dated 2025)
# Molecular target: Recombinant human HSD17B13 (Homo sapiens (Human), UniProt Q7Z5P4)
# Test: HSD17B13 rapid-fire mass spectrometry assay (RF/MS assay)
# Assay type: biochemical
# Details: inhibition of HSD17B13; LTB4 10 μM, NAD+ 0.5 mM, RT 3 h; IC50 ranges A-E
# From the text: HSD17B13 rapid-fire mass spectrometry assay (RF/MS assay). Recombinant human HSD17B13 was expressed and purified from sf9 cells at Charles River Labs (Saffron Walden, UK). Leukotriene B4 (Catalog #71160-24-2) and 12-oxoleukotriene B4 (Catalog #20140) were purchased from Cayman Chemicals (Ann Arbor, Michigan.). NAD+ (Catalog #N8285), BSA (Catalog #A7030), DMSO (Catalog #D2650), and Tween-20 (Catalog #11332465001) were purchased from Sigma (St. Louis, MO). Formic acid (Catalog #28905) was from ThermoFisher Scientific and 384 deep well PP microplates (Catalog #784261) were from Greiner Bio-One. In a typical IC50 assay performed in a 384w PP microplate, test compounds (0-100 μM) were incubated with HSD17B13 (80 nM), LTB4 (10 μM), and NAD^+ (0.5 mM) in 10 μL assay buffer (20 mM Tris (pH 7.5), BSA (0.005%), and Tween-20 (0.01%)) at RT for 3 h. The assays were quenched by adding 20 μL of 0.15% aqueous formic acid and the plates were frozen at −80° C. RF/MS analysis was performed at PureHoney Technologies (Billerica, MA) on a RapidFire RF300 system (Agilent Technologies, Inc.) coupled to an API 4000 triple quadrupole mass spectrometer (Sciex) equipped with Agilent RapidFire cartridge type A (C4). The mobile phase was 0.09% formic acid and 0.01% trifluoracetic acid in water (Buffer A) and 0.09% formic acid and 0.01% trifluoracetic acid in 80% aqueous acetonitrile (Buffer B). The RapidFire method conditions were the following: 250 ms aspirate, 3000 ms load/desalt, 4000 ms elute, and 500 ms re-equilibrate. RF-MS/MS was performed in negative polarity (−4500 V), the source temperature was 650° C., and gas 1 and gas 2 settings for nitrogen were set to 50. The curtain gas and collision gas were also nitrogen and were set to 20 and 12, respectively. Leukotriene B4 (335.3) and 12-oxoLeukotriene B4 (333.3) SRM transitions were optimized with Discovery Quant software and extracted ion counts for these analytes were determined.
# Data Analysis. HSD17B13 enzyme activity was measured as percent conversion of extracted ion counts and normalized to high and low controls to determine percent residual activity at various concentrations of test compounds. Data were fitted to normalized activity (variable slope) versus concentration fit in GraphPad Prism 7 to determine IC50. All experiments were run in duplicates.
# By using above method, the inhibition of HSD17B13 was evaluated for the compounds of Formula (I). IC50 ranges are as follows: A=IC50<0.100 μM; B=0.100 μM<IC50<0.500 μM; C=0.500 μM<IC50<1 μM; D=1 μM<IC50<100 μM; E=IC50>100 μM
# Recombinant human HSD17B13, sequence (Q7Z5P4 20-300): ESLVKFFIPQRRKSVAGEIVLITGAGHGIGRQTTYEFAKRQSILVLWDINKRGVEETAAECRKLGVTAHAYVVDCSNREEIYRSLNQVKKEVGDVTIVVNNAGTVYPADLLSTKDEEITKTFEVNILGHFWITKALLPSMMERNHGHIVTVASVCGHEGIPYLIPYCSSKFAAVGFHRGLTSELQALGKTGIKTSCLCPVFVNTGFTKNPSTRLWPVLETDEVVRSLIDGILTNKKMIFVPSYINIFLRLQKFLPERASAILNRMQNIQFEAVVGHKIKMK
row,Structure (SMILES),IC50
1,COc1nc(C(=O)O)ccc1NS(=O)(=O)c1cnc(-c2ccc(F)cc2)s1 [Example 74],1000 to 100000 nM
2,COc1cc(C(=O)O)ccc1NS(=O)(=O)c1ccc(-c2ccccc2F)s1 [Example 201],< 100 nM
3,COc1cc(C(=O)O)ccc1NS(=O)(=O)c1cccc(-c2ccc(C3=CCC(C(F)(F)F)CC3)cc2)c1F (stereo not drawn) [Example 471],100 to 500 nM
4,COc1cc(C(=O)O)ccc1NS(=O)(=O)c1csc(-c2ccc(C(=O)c3ccccc3)cc2)n1 [Example 297],500 to 1000 nM
5,COc1cc(C(=O)O)ccc1NS(=O)(=O)c1ccc(C2=CCN(c3ccccc3)CC2)cc1F [Example 341],500 to 1000 nM
6,COc1cc(C(=O)O)ccc1NS(=O)(=O)c1ccc(Oc2ccccc2OC)cc1 [Example 134],500 to 1000 nM
7,CCC[C@H]1CC[C@H](C2CCC(c3nc(S(=O)(=O)Nc4ccc(C(=O)O)cc4OC)cs3)CC2)CC1 (stereo partly drawn) [Example 381],100 to 500 nM
8,COc1cc(C(=O)O)ccc1NS(=O)(=O)c1ccc(-c2cnn(C3CCCCC3)c2)cc1F [Example 355],100 to 500 nM
9,COc1cc(C(=O)O)ccc1NS(=O)(=O)c1cnc(-c2ccc(C3=C[C@H]4CC[C@]3(C)C4(C)C)cc2)s1 [Example 711],100 to 500 nM
10,COc1cc(C(=O)O)ccc1NS(=O)(=O)c1csc(C#Cc2ccc(F)cc2)n1 [Example 184],100 to 500 nM
11,COc1cc(C(=O)O)ccc1NS(=O)(=O)C1CCN(c2ncccn2)CC1 [Example 318],1000 to 100000 nM
12,"COc1cc(C(=O)O)ccc1NS(=O)(=O)c1cnc(-c2ccc(C3CCC(c4ccccc4)CC3)cc2)s1 (stereo not drawn) [Example 452, 3-methoxy-4-((2-(4-(4-phenylcyclohexyl)phenyl)thiazole)-5-sulfonamido)benzoic acid]",100 to 500 nM
13,O=C(O)c1ccc(NS(=O)(=O)c2cscn2)cc1 [Example 52],1000 to 100000 nM
14,COc1cc(C(=O)O)ccc1NS(=O)(=O)c1csc(C#Cc2ccc(Cl)cc2)n1 [Example 185],500 to 1000 nM
15,COc1cc(C(=O)O)ccc1NS(=O)(=O)N1Cc2nc(C3=CCC(C(C)(C)C)CC3)sc2C1 (stereo not drawn) [Example 362],100 to 500 nM
16,O=C(O)c1cnc(NS(=O)(=O)c2cnc(-c3ccc(F)cc3)s2)cn1 [Example 90],1000 to 100000 nM
17,O=C(O)c1ccc(NS(=O)(=O)c2cnc(-c3ccc(F)cc3)s2)c(OC2CC2)c1 [Example 43],1000 to 100000 nM
18,COc1cc(C(=O)O)ccc1NS(=O)(=O)c1cnc(-c2ccc(F)cc2)s1 [Example 23],< 100 nM
19,COc1cc(C(=O)O)ccc1NS(=O)(=O)c1ccc(-c2cnc(-c3ccccc3)s2)c(F)c1 [Example 332],100 to 500 nM
20,COC(=O)c1ccc(C#Cc2nc(S(=O)(=O)Nc3ccc(C(=O)O)cc3OC)cs2)cc1OC(F)(F)F [Example 398],< 100 nM
21,COc1cc(C(=O)O)ccc1NS(=O)(=O)c1csc(C#Cc2ccccc2Cl)n1 [Example 196],< 100 nM
22,COc1cc(C(=O)O)ccc1NS(=O)(=O)c1csc(N2C[C@@H]3C[C@H]2CN3c2ccccc2)n1 [Example 289],500 to 1000 nM
23,COc1cc(C(=O)O)ccc1NS(=O)(=O)c1csc(N2CCC[C@@H](Cc3ccc(F)cc3)C2)n1 [Example 279],1000 to 100000 nM
24,COc1cc(C(=O)O)ccc1NS(=O)(=O)c1ccc(-c2ccccc2)cc1 [Example 144],100 to 500 nM
25,COc1cc(C(=O)O)ccc1NS(=O)(=O)c1ccc(-c2ccc(-c3ccc(OC(F)(F)F)cc3)cc2)s1 [Example 219],100 to 500 nM
26,COc1cc(C(=O)O)ccc1NS(=O)(=O)N1Cc2nc(-c3ccc(C4CCCCC4)cc3)sc2C1 [Example 344],500 to 1000 nM

# Next, values leading:
row,IC50,Structure (SMILES)
1,100 to 500 nM,COc1cc(C(=O)O)c(F)cc1NS(=O)(=O)c1csc(-c2ccc(C3CCC(C)(C)CC3)cn2)n1 [Example 573]
2,100 to 500 nM,COc1cc(C(=O)O)ccc1NS(=O)(=O)c1csc(N2CC=C(c3ccccc3)C2)n1 [Example 268]
3,100 to 500 nM,COCCOc1c(C2CCC(C)(C)CC2)ccc(-c2nc(S(=O)(=O)Nc3cc(F)c(C(=O)O)cc3OC)cs2)c1F [Example 580]
4,100 to 500 nM,COc1c(NS(=O)(=O)c2csc(-c3ccc(C4CCC(C)(C)CC4)cc3)n2)ccc(C(=O)O)c1F [Example 505]
5,100 to 500 nM,COc1cc(C(=O)O)c(F)cc1NS(=O)(=O)c1csc(-c2ccc(-c3cccs3)cc2)n1 [Example 645]
6,100 to 500 nM,COc1cc(C(=O)O)c(F)cc1NS(=O)(=O)c1cnc(-c2ccc(C3=CCC(F)(F)CC3)cc2)s1 [Example 727]
7,100 to 500 nM,COc1cc(C(=O)O)c(F)cc1NS(=O)(=O)c1csc(-c2ccc(C3=CCC(C)(C)CC3)c(F)c2C)n1 [Example 562]
8,< 100 nM,COc1cc(C(=O)O)c(F)cc1NS(=O)(=O)c1csc(-c2ccc([C@H]3CC[C@H](C(C)C)CC3)c(F)c2F)n1 [Example 773]
9,100 to 500 nM,COc1cc(C(=O)O)c(F)cc1NS(=O)(=O)c1ccc2sc(-c3ccc([C@H]4CC[C@H](C(F)(F)F)CC4)cc3)nc2c1 [Example 650]
10,< 100 nM,COc1cc(C(=O)O)c(F)cc1NS(=O)(=O)c1cccc(-c2ccc(C3=CC[C@H](C(C)(C)C)CC3)cc2)c1F [Example 499]
11,100 to 500 nM,"COc1cc(C(=O)O)ccc1NS(=O)(=O)c1csc(C#Cc2cc(C(F)(F)F)[nH]c(=O)c2)n1 [Example 247, 3-methoxy-4-((2-((2-oxo-6-(trifluoromethyl)-1,2-dihydropyridin-4-yl)ethynyl)thiazole)-4-sulfonamido)benzoic acid]"
12,100 to 500 nM,COc1cc(C(=O)O)c(F)cc1NS(=O)(=O)c1coc(-c2ccc([C@H]3CC[C@@H](O)CC3)cc2)n1 [Example 623]
13,1000 to 100000 nM,COc1cc(C(=O)O)ccc1NS(=O)(=O)c1csc(-c2ccccn2)n1 [Example 147]
14,< 100 nM,CCC[C@H]1CC[C@H](c2ccc(-c3nc(S(=O)(=O)Nc4cc(F)c(C(=O)O)cc4OC)cs3)c(F)c2)CC1 [Example 755]
15,500 to 1000 nM,COc1cc(C(=O)O)ccc1NS(=O)(=O)c1ccc(-c2ccc3c(c2)C(C)(C)CCC3(C)C)cc1F [Example 339]
16,100 to 500 nM,COc1cc(C(=O)O)c(F)cc1NS(=O)(=O)c1cnc(-c2ccc([C@H]3CC[C@H](C(C)C)CC3)cc2)s1 [Example 769]

row,IC50,Structure (SMILES)
1,< 100 nM,COc1cc(C(=O)O)c(F)cc1NS(=O)(=O)c1csc(-c2ccc([C@H]3CC[C@H](C(F)(F)F)CC3)cc2)n1 [Example 509]
2,< 100 nM,CC[C@H]1CC[C@H](c2ccc(-c3nc(S(=O)(=O)Nc4cc(F)c(C(=O)O)cc4OC)cs3)c(C(F)(F)F)c2)CC1 [Example 787]
3,500 to 1000 nM,COc1cc(C(=O)O)ccc1NS(=O)(=O)c1csc(-c2ccccc2O)n1 [Example 142]
4,500 to 1000 nM,COc1cc(C(=O)O)c(F)cc1NS(=O)(=O)c1csc(-c2ccc([C@]3(CO)CC[C@@H](C(F)(F)F)CC3)cc2)n1 [Example 532]
5,< 100 nM,COc1cc(C(=O)O)ccc1NS(=O)(=O)c1csc(-c2ccc(C3CCC3)cc2)n1 [Example 351]
6,500 to 1000 nM,COc1cc(C(=O)O)ccc1NS(=O)(=O)c1csc(-c2ccc(C#Cc3ccc(F)cc3)cc2)n1 [Example 486]
7,100 to 500 nM,COc1cc(C(=O)O)c(F)cc1NS(=O)(=O)c1csc(-c2ccc(-c3csc4ccccc34)cc2)n1 [Example 636]
8,100 to 500 nM,COc1cc(C(=O)O)ccc1NS(=O)(=O)c1csc(-c2ccc(-c3ccccc3)c(F)c2)n1 [Example 302]
9,< 100 nM,COc1cc(C(=O)O)c(F)cc1NS(=O)(=O)c1csc(-c2ccc([C@H]3CC[C@H](C(C)C)CC3)c(C)c2F)n1 [Example 808]
10,100 to 500 nM,CCC[C@H]1CC[C@H](C2CC=C(c3nc(S(=O)(=O)Nc4ccc(C(=O)O)cc4OC)cs3)CC2)CC1 (stereo partly drawn) [Example 379]
11,< 100 nM,COc1cc(C(=O)O)ccc1NS(=O)(=O)c1csc(C2=CCC(c3ccccc3)CC2)n1 (stereo not drawn) [Example 354]
12,100 to 500 nM,COc1cc(C(=O)O)c(F)cc1NS(=O)(=O)c1csc(-c2ccc(C3=CCC(C)(C)CC3)c(C)c2)n1 [Example 527]
13,100 to 500 nM,COc1cc(C(=O)O)c(F)cc1NS(=O)(=O)c1csc(-c2ccc(-c3ccc(C(F)(F)C(F)(F)F)cc3)cc2)n1 [Example 735]
14,100 to 500 nM,COc1cc(C(=O)O)ccc1NS(=O)(=O)c1ccc(C2=CCC3(CC2)OCCO3)cc1F [Example 356]
15,< 100 nM,COc1cccc(C#Cc2nc(S(=O)(=O)Nc3cc(F)c(C(=O)O)cc3OC)cs2)c1 [Example 242]
